Measured values from patent US7247617B2, “Sixteen-member macrolide antiinfective agents” (Kosan Biosciences Incorporated, priority 2004, dated 2007).

Tests used:
[1] = test system: a series of bacterial strains; assay: Biological activity against a series of bacterial strains (overall statements); assay type: cell-based
Text: Results for S. pneumoniae, S. aureus, S. epidermidis, and E. faecalis are provided in Table B. Data on activity against H. influenzae for selected compounds are presented in Table C.

S. aureus = assay: Biological activity against bacterial strains: S. aureus; assay type: cell-based, Staphylococcus aureus; set-up: unit not given here; conditions: for Biological Activity, S. aureus ATCC6538p: strain ATCC6538p; for Biological Activity, S. aureus ATCC14154*: strain ATCC14154, macrolide resistant strain; for Biological Activity, S. aureus ATCC29213: strain ATCC29213; for Biological Activity, S. aureus ATCC33591*: strain ATCC33591, macrolide resistant strain; for Biological Activity, S. aureus ATCCBAA-39*: strain ATCCBAA-39, macrolide resistant strain; for Biological Activity, S. aureus ATCCBAA-44*: strain ATCCBAA-44, macrolide resistant strain
S. pneumoniae = assay: Biological activity against bacterial strains: S. pneumoniae; assay type: cell-based, Streptococcus pneumoniae; set-up: Biological Activity, S. pneumoniae ATCC6301 / Biological Activity, S. pneumoniae ATCC700671 / Biological Activity, S. pneumoniae ATCC700676* / Biological Activity, S. pneumoniae ATCC700677* / Biological Activity, S. pneumoniae ATCC700905* / Biological Activity, S. pneumoniae ATCC700906* / Biological Activity, S. pneumoniae ATCC49619: unit not given here; conditions: for Biological Activity, S. pneumoniae ATCC6301: strain ATCC6301; for Biological Activity, S. pneumoniae ATCC49619: strain ATCC49619; for Biological Activity, S. pneumoniae ATCC700671: strain ATCC700671; for Biological Activity, S. pneumoniae ATCC700676*: strain ATCC700676, macrolide resistant strain; for Biological Activity, S. pneumoniae ATCC700677*: strain ATCC700677, macrolide resistant strain; for Biological Activity, S. pneumoniae ATCC700905*: strain ATCC700905, macrolide resistant strain; for Biological Activity, S. pneumoniae ATCC700906*: strain ATCC700906, macrolide resistant strain
S. epidermidis = assay: Biological activity against bacterial strains: S. epidermidis; assay type: cell-based, Staphylococcus epidermidis; conditions: strain ATCC12228
E. faecalis = assay: Biological activity against bacterial strains: E. faecalis; assay type: cell-based, Enterococcus faecalis; conditions: strain ATCC51575
Haemophilus Influenzae = assay: H. influenzae Activity; assay type: cell-based

Row | SMILES | antibiotic / antibacterial activity (in words) [1] | Biological Activity, S. aureus ATCC6538p (S. aureus) | Biological Activity, S. aureus ATCC14154* (S. aureus) | Biological Activity, S. aureus ATCC29213 (S. aureus) | Biological Activity, S. aureus ATCC33591* (S. aureus) | Biological Activity, S. aureus ATCCBAA-39* (S. aureus) | Biological Activity, S. aureus ATCCBAA-44* (S. aureus) | Biological Activity, S. pneumoniae ATCC6301 (S. pneumoniae) | Biological Activity, S. pneumoniae ATCC49619 (S. pneumoniae) | Biological Activity, S. pneumoniae ATCC700671 (S. pneumoniae) | Biological Activity, S. pneumoniae ATCC700676* (S. pneumoniae) | Biological Activity, S. pneumoniae ATCC700677* (S. pneumoniae) | Biological Activity, S. pneumoniae ATCC700905* (S. pneumoniae) | Biological Activity, S. pneumoniae ATCC700906* (S. pneumoniae) | Biological Activity, S. epidermidis ATCC12228 (S. epidermidis) | activity of Z-configuration oxime versus its E counterpart (in words) [1] | Biological Activity, E. faecalis ATCC51575 (E. faecalis) | H. influenzae Activity, strain ATCC9006 (Haemophilus Influenzae; strain ATCC9006) | H. influenzae Activity, strain ATCC49766 (Haemophilus Influenzae; strain ATCC49766)
1 | CCC1OC(=O)CC(O)C(C)C(OC2OC(C)C(O)C(N(C)C)C2O)C(CCN2CC(C)CC(C)C2)CC(C)C(=NO)C=CC(C)=CC1CO (stereo not drawn) [Compound 9, 20-deoxy(3,5-dimethyl-1-piperidine)OMT 9-oxime, reference compound] | no antibiotic activity |  |  |  |  |  |  |  |  |  |  |  |  |  |  |  |  |  | 
2 | CCC1OC(=O)CC(O)C(C)C(OC2OC(C)C(O)C(N(C)C)C2O)C(CC=O)CC(C)C(=NOCC#Cc2cnc3ccccc3c2)C=CC(C)=CC1CO (single isomer, unassigned) [Compound E] |  | 0.098 | 0.39 | 0.39 | >12.5 | >12.5 | >12.5 | 0.025 | 0.025 | 0.025 | 0.025 | >12.5 | 0.049 | >12.5 | 0.098 | more active than compound D | >12.5 |  | 
3 | CCC1OC(=O)CC(O)C(C)C(OC2OC(C)C(O)C(N(C)C)C2O)C(CC=O)CC(C)C(=NOCCCOc2ccc3ncccc3c2)C=CC(C)=CC1COC(=O)NCc1ccccc1 (stereo not drawn) [Compound DD] |  | 0.78 | 1.56 | 0.78 | 12.5 | >12.5 | >12.5 | 0.049 | 0.049 | 0.049 | 0.049 | 0.2 | >12.5 | 0.049 | 0.78 |  | >12.5 | 12.5 | 12.5
4 | CCC1OC(=O)CC(O)C(C)C(OC2OC(C)C(O)C(N(C)C)C2O)C(CCN2CC(C)CC(C)C2)CC(C)C(=O)C=CC(C)=CC1CO (stereo not drawn) [Compound 8, 20-Deoxy(3,5-dimethyl-1-piperidine)OMT, reference compound] | no antibiotic activity | 0.39 | 1.56 | 1.56 | >12.5 | >12.5 | >12.5 | 0.39 | 0.78 | 0.78 | 1.56 | >12.5 | 1.56 | >12.5 | 0.78 |  | >12.5 |  | 
5 | CC[C@H]1OC(=O)C[C@@H](O)[C@H](C)[C@@H](OC2OC(C)C(O)C(N(C)C)C2O)[C@@H](CC=O)C[C@@H](C)C(=N\OCCOc2ccccc2)/C=C/C(C)=C/C1CO (stereo partly drawn) [Compound IIb] |  | 0.39 | 1.56 | 1.56 | >12.5 | >12.5 | >12.5 | 0.025 | 0.20 | 0.20 | 0.025 | 1.56 | 0.20 | >12.5 | 0.78 | more active than compound Ia | >12.5 |  | 
